Calls of active or inactive are those of the source. No cut-off for these calls is given here.
Key:
Staphylococcus aureus [1] = experiment: Antibacterial activity against methicillin-resistant Staphylococcus aureus ATCC 33591; type: functional
Staphylococcus aureus [2] = experiment: Bactericidal activity against Staphylococcus aureus CGMCC1.8721 by CLSI based method; type: functional
Staphylococcus aureus [3] = experiment: Bactericidal activity against methicillin-resistant Staphylococcus aureus ATCC 33591 by CLSI based method; type: functional
HeLa = experiment: Cytotoxicity against human HeLa cells at 40 uM by CCK8 assay relative to control; type: toxicity, cell-based
HepG2 = experiment: Cytotoxicity against human HepG2 cells at 40 uM by CCK8 assay relative to control; type: toxicity, cell-based; conditions: hepg2, 40 µM
[4] = Hemolytic activity in rabbit RBC; type: toxicity, cell-based, Oryctolagus cuniculus, Erythrocyte; conditions: rabbit red blood cells
Staphylococcus aureus [5] = experiment: Bactericidal activity against Staphylococcus aureus CGMCC1.8721 at 4 to 8 times MIC incubated for 0.5 to 1 hr by time kill assay relative to control; type: functional; conditions: time 0.5-1 hrs
Staphylococcus aureus [6] = experiment: Induction of resistance development in Staphylococcus aureus CGMCC1.8721 at sub-lethal concentration following serial passages for 30 days; type: functional, organism-based; conditions: time 30.0 day
Staphylococcus aureus [7] = experiment: Antibacterial activity against Staphylococcus aureus CGMCC1.8721 in presence of K+ (reference value: 0.5 ug/ml); type: functional
Staphylococcus aureus [8] = experiment: Antibacterial activity against Staphylococcus aureus CGMCC1.8721 in presence of Ca2+ (reference value: 0.5 ug/ml); type: functional
Staphylococcus aureus [9] = experiment: Antibacterial activity against Staphylococcus aureus CGMCC1.8721 in presence of Fe3+ (reference value: 0.5 ug/ml); type: functional
Staphylococcus aureus [10] = experiment: Antibacterial activity against Staphylococcus aureus CGMCC1.8721 in presence of H2PO4- (reference value: 0.5 ug/ml); type: functional
Staphylococcus aureus [11] = experiment: Antibacterial activity against Staphylococcus aureus CGMCC1.8721 at pH 6.5 (reference value: 0.5 ug/ml); type: functional
Staphylococcus aureus [12] = experiment: Antibacterial activity against Staphylococcus aureus CGMCC1.8721 at 37.5 degreeC (reference value: 0.5 ug/ml); type: functional
Staphylococcus aureus [13] = experiment: Antibacterial activity against methicillin-resistant Staphylococcus aureus ATCC 43300 in presence of K+ (reference value: 0.5 ug/ml); type: functional
Staphylococcus aureus [14] = experiment: Antibacterial activity against methicillin-resistant Staphylococcus aureus ATCC 43300 in presence of Ca2+ (reference value: 0.5 ug/ml); type: functional
Staphylococcus aureus [15] = experiment: Antibacterial activity against methicillin-resistant Staphylococcus aureus ATCC 43300 in presence of Mg2+ (reference value: 0.5 ug/ml); type: functional
Staphylococcus aureus [16] = experiment: Antibacterial activity against methicillin-resistant Staphylococcus aureus ATCC 43300 at pH 8 (reference value: 0.5 ug/ml); type: functional
Staphylococcus aureus [17] = experiment: Antibacterial activity against methicillin-resistant Staphylococcus aureus ATCC 43300 at 37.5 degreeC (reference value: 0.5 ug/ml); type: functional
Staphylococcus aureus [18] = experiment: Antibacterial activity against methicillin-resistant Staphylococcus aureus CGMCC1.12409 in presence of K+ (reference value: 0.5 ug/ml); type: functional
Staphylococcus aureus [19] = experiment: Antibacterial activity against methicillin-resistant Staphylococcus aureus CGMCC1.12409 in presence of Ca2+ (reference value: 0.5 ug/ml); type: functional
Staphylococcus aureus [20] = experiment: Antibacterial activity against methicillin-resistant Staphylococcus aureus CGMCC1.12409 in presence of Mg2+ (reference value: 0.5 ug/ml); type: functional
Staphylococcus aureus [21] = experiment: Antibacterial activity against methicillin-resistant Staphylococcus aureus CGMCC1.12409 in presence of Fe2+ (reference value: 0.5 ug/ml); type: functional
Staphylococcus aureus [22] = experiment: Antibacterial activity against methicillin-resistant Staphylococcus aureus CGMCC1.12409 in presence of Fe3+ (reference value: 0.5 ug/ml); type: functional
Staphylococcus aureus [23] = experiment: Antibacterial activity against methicillin-resistant Staphylococcus aureus CGMCC1.12409 at pH 8 (reference value: 0.5 ug/ml); type: functional
Staphylococcus aureus [24] = experiment: Antibacterial activity against methicillin-resistant Staphylococcus aureus CGMCC1.12409 at 36.5 degreeC (reference value: 0.5 ug/ml); type: functional
Staphylococcus aureus [25] = experiment: Antibacterial activity against methicillin-resistant Staphylococcus aureus ATCC 33591 in presence of Zn2+ (reference value: 1 ug/ml); type: functional
Staphylococcus aureus [26] = experiment: Antibacterial activity against methicillin-resistant Staphylococcus aureus ATCC 33591 in presence of H2PO4- (reference value: 1 ug/ml); type: functional
Staphylococcus aureus [27] = experiment: Antibacterial activity against methicillin-resistant Staphylococcus aureus ATCC 33591 at 36.5 degreeC (reference value: 1 ug/ml); type: functional
Staphylococcus aureus [28] = experiment: Antibacterial activity against methicillin-resistant Staphylococcus aureus ATCC 33591 at 37.5 degreeC (reference value: 1 ug/ml); type: functional
Staphylococcus aureus [29] = experiment: Antibiofilm activity against Staphylococcus aureus CGMCC1.8721 by crystal violet staining based analysis; type: functional, organism-based
Staphylococcus aureus [30] = experiment: Antibiofilm activity against Staphylococcus aureus CGMCC1.8721 at 4 times MIC by crystal violet staining based analysis relative to control; type: functional
Staphylococcus aureus [31] = experiment: Induction of membrane depolarization in Staphylococcus aureus CGMCC1.8721 by DiSC3(5) dye based analysis; type: functional, organism-based
Staphylococcus aureus [32] = experiment: Antibacterial activity against Staphylococcus aureus CGMCC1.8721 in presence of phosphatidylcholine; type: functional, organism-based
Staphylococcus aureus [33] = experiment: Antibacterial activity against Staphylococcus aureus CGMCC1.8721 in presence of LTA; type: functional, organism-based
Staphylococcus aureus [34] = experiment: Antibacterial activity against Staphylococcus aureus CGMCC1.8721 in presence of dNTP; type: functional, organism-based
Staphylococcus aureus [35] = experiment: Induction of cell membrane damage in Staphylococcus aureus CGMCC1.8721 assessed as red fluorescence at 4 times MIC by SYTO9/PI staining based CLSM analysis; type: functional, organism-based
Staphylococcus aureus [36] = experiment: Induction of morphological change in Staphylococcus aureus CGMCC1.8721 assessed as depression of cell surface at 4 times MIC by […] SEM analysis; type: functional, organism-based
Staphylococcus aureus [37] = experiment: Induction of morphological change in Staphylococcus aureus CGMCC1.8721 assessed as leakage of intracellular components at 4 times MIC by […] SEM analysis; type: functional, organism-based
Staphylococcus aureus [38] = experiment: Antibacterial activity against methicillin-resistant Staphylococcus aureus CGMCC1.12409 infected in mouse model assessed as reduction in bacterial clones at 5 to 10 mg/kg measured for 5 days; type: functional, organism-based; conditions: dose 5-10 mg/kg, time 5.0 day
Staphylococcus aureus [39] = experiment: Antibacterial activity against methicillin-resistant Staphylococcus aureus CGMCC1.12409 infected in mouse model assessed as reduction in bacterial load at infection site at 5 mg/kg measured for 5 days relative to control; type: functional; set-up: scale not given: the % may be the effect or the level left; conditions: time 5 day
Staphylococcus aureus [40] = experiment: Antibacterial activity against methicillin-resistant Staphylococcus aureus CGMCC1.12409 infected in mouse model assessed as reduction in bacterial load at infection site at 10 mg/kg measured for 5 days relative to control; type: functional; set-up: scale not given: the % may be the effect or the level left; conditions: time 5 day
Staphylococcus aureus [41] = experiment: Antibacterial activity against methicillin-resistant Staphylococcus aureus CGMCC1.12409 infected in mouse model assessed as smooth dorsal skin at 10 mg/kg measured for 5 days; type: functional, organism-based; conditions: route sc, time 5.0 day
Staphylococcus aureus [42] = experiment: Antibacterial activity against methicillin-resistant Staphylococcus aureus CGMCC1.12409 infected in mouse model assessed as reduction in skin lession in subcutaneous tissues at 10 mg/kg measured for 5 days; type: functional, organism-based; conditions: time 5.0 day

**Q.** For `COc1ccc2[nH]c3c(CC[C@H](C)[C@H]4CC[C@H]5[C@@H]6[C@H](O)C[C@@H]7C[C@H](O)CC[C@]7(C)[C@H]6C[C@H](O)[C@]45C)[n+](Cc4ccc(Cl)cc4)ccc3c2c1.[Br-]`, which MIC (Staphylococcus aureus [1]) is on record?
**A.** Its MIC is 1 µg/mL.

**Q.** What about the MBC (Staphylococcus aureus [2]) of the same compound?
**A.** Its MBC is 1 µg/mL.

**Q.** And the MBC (Staphylococcus aureus [3])?
**A.** Its MBC is 2 µg/mL.

**Q.** And the Activity (HeLa)?
**A.** The Activity was “Non-toxic”.

**Q.** What about the Activity (HepG2) of the same compound?
**A.** Its Activity is “Non-toxic”.

**Q.** And the HC50 [4]?
**A.** Its HC50 is > 256 µg/mL.

**Q.** What about the Activity (Staphylococcus aureus [5]) of the same compound?
**A.** Its Activity is 100%.

**Q.** And the Activity (Staphylococcus aureus [6])?
**A.** The Activity was “inactive”.

**Q.** What about the MIC (Staphylococcus aureus [7]) of the same compound?
**A.** Its MIC is 0.5 µg/mL.

**Q.** What about the MIC (Staphylococcus aureus [8]) of the same compound?
**A.** The MIC was 0.5 µg/mL.

**Q.** And the MIC (Staphylococcus aureus [9])?
**A.** Its MIC is 0.5 µg/mL.

**Q.** What about the MIC (Staphylococcus aureus [10]) of the same compound?
**A.** Its MIC is 0.5 µg/mL.

**Q.** What about the MIC (Staphylococcus aureus [11]) of the same compound?
**A.** The MIC was 0.5 µg/mL.

**Q.** What about the MIC (Staphylococcus aureus [12]) of the same compound?
**A.** Its MIC is 0.5 µg/mL.

**Q.** What about the MIC (Staphylococcus aureus [13]) of the same compound?
**A.** The MIC was 0.5 µg/mL.

**Q.** And the MIC (Staphylococcus aureus [14])?
**A.** Its MIC is 0.5 µg/mL.

**Q.** What about the MIC (Staphylococcus aureus [15]) of the same compound?
**A.** Its MIC is 0.5 µg/mL.

**Q.** And the MIC (Staphylococcus aureus [16])?
**A.** The MIC was 0.5 µg/mL.

**Q.** What about the MIC (Staphylococcus aureus [17]) of the same compound?
**A.** The MIC was 0.5 µg/mL.

**Q.** What about the MIC (Staphylococcus aureus [18]) of the same compound?
**A.** The MIC was 1 µg/mL.

**Q.** What about the MIC (Staphylococcus aureus [19]) of the same compound?
**A.** Its MIC is 1 µg/mL.

**Q.** What about the MIC (Staphylococcus aureus [20]) of the same compound?
**A.** The MIC was 1 µg/mL.

**Q.** What about the MIC (Staphylococcus aureus [21]) of the same compound?
**A.** Its MIC is 1 µg/mL.

**Q.** What about the MIC (Staphylococcus aureus [22]) of the same compound?
**A.** Its MIC is 1 µg/mL.

**Q.** What about the MIC (Staphylococcus aureus [23]) of the same compound?
**A.** Its MIC is 1 µg/mL.

**Q.** And the MIC (Staphylococcus aureus [24])?
**A.** The MIC was 0.5 µg/mL.

**Q.** What about the MIC (Staphylococcus aureus [25]) of the same compound?
**A.** Its MIC is 1 µg/mL.

**Q.** And the MIC (Staphylococcus aureus [26])?
**A.** Its MIC is 1 µg/mL.

**Q.** What about the MIC (Staphylococcus aureus [27]) of the same compound?
**A.** The MIC was 1 µg/mL.

**Q.** What about the MIC (Staphylococcus aureus [28]) of the same compound?
**A.** The MIC was 1 µg/mL.

**Q.** What about the Activity (Staphylococcus aureus [29]) of the same compound?
**A.** Its Activity is “Dose-dependent-effect”.

**Q.** What about the Activity (Staphylococcus aureus [30]) of the same compound?
**A.** Its Activity is ~87%.

**Q.** What about the Activity (Staphylococcus aureus [31]) of the same compound?
**A.** Its Activity is “Dose-dependent-effect”.

**Q.** What about the Activity (Staphylococcus aureus [32]) of the same compound?
**A.** Its Activity is “Active”.

**Q.** And the Activity (Staphylococcus aureus [33])?
**A.** The Activity was “Active”.

**Q.** What about the Activity (Staphylococcus aureus [34]) of the same compound?
**A.** Its Activity is “Active”.

**Q.** What about the Activity (Staphylococcus aureus [35]) of the same compound?
**A.** Its Activity is “Active”.

**Q.** And the Activity (Staphylococcus aureus [36])?
**A.** Its Activity is “Active”.

**Q.** And the Activity (Staphylococcus aureus [37])?
**A.** Its Activity is “Active”.

**Q.** What about the Activity (Staphylococcus aureus [38]) of the same compound?
**A.** Its Activity is “Active”.

**Q.** What about the Activity (Staphylococcus aureus [39]) of the same compound?
**A.** Its Activity is 94.33%.

**Q.** What about the Activity (Staphylococcus aureus [40]) of the same compound?
**A.** Its Activity is 98.55%.

**Q.** What about the Activity (Staphylococcus aureus [41]) of the same compound?
**A.** Its Activity is “Active”.

**Q.** What about the Activity (Staphylococcus aureus [42]) of the same compound?
**A.** The Activity was “Active”.
